For assay [1], the system named is IL-1β release upon NLRP3 activation in phorbol 12-myristate 13-acetate (PMA)-differentiated THP-1 cells. As to the kind of experiment: THP-1 IC50 Determination Assay. The format is cell-based. To be noted: Homo sapiens, inhibition of IL-1β release, LPS, nigericin, ELISA. As to the method:
The compounds of the present disclosure were tested for their inhibitory activity against IL-1β release upon NLRP3 activation in phorbol 12-myristate 13-acetate (PMA)-differentiated THP-1 cells.
THP-1 cells stored in liquid nitrogen were thawed in a 37° C. water bath. The cells were added into complete RPMI 1640 medium (FBS (56 mL), 100× Penicillin-Streptomycin (5.6 mL) and 0.05 mM 2-Mercaptoethanol in RPMI 1640 Medium (500 mL)) and centrifuged for 5 min at 1000 rpm. The supernatant was discarded and the cells resuspended into new cell culture medium for culturing. Cells were cultured in cell culture medium and passaged every 3-4 days to maintain cell density between 4×10^5 and 1.5×10^6 cells/mL. The cells were diluted to 0.8×10^6 cells/mL and grown in a T150 flask with PMA (final concentration 5 ng/mL). The flask was incubated in a 37° C. incubator with a humidified atmosphere of 5% CO2 for −40 hours. After −40 hours of PMA differentiation, the flask was washed with DPBS. Cells were digested with Trypsin LE for about 5 min at room temperature, and digestion was terminated using complete RPMI 1640 medium. Cells were centrifuged and resuspended (1000 rpm, 3 min). The supernatant was discarded and cells washed with DPBS, centrifuged and resuspended cells (1000 rpm, 5 min). Cells were plated at 30,000 cells/well in a 384-well PP plate and treated with 25 ng/mL LPS solution diluted in serum-free medium (45 μL). The plate was incubated in a 37° C. incubator with a humidified atmosphere of 5% CO2 for 2 hours. Compounds (from 10 mM DMSO solution) were dispensed and serially diluted by 1:3 eight times, with final 0.5% DMSO concentration. NLRP3 inflammasome was activated with nigericin (5 μL), the plate was centrifuged (1000 rpm, 30 s) and incubated in a 37° C. incubator with a humidified atmosphere of […] for 2 hours. 35 μL/well of supernatant was removed and IL-1β levels determined by ELISA assay (Mabtech 3416-1H-20) according to the manufacturer's instructions.

The test system of assay [2] is IL-1β release upon NLRP3 activation in peripheral blood mononuclear cells (PBMC). As to the kind of experiment: PBMC IC50 Determination Assay. The class given is cell-based. To be noted: Homo sapiens; inhibition of IL-1β release; PBMC primed with LPS, stimulated with ATP or nigericin; ELISA or HTRF. As to the method:
The compounds of the present disclosure were tested for their inhibitory activity against IL-1β release upon NLRP3 activation in peripheral blood mononuclear cells (PBMC).
Protocol A. PBMC were isolated from buffy coats by density gradient centrifugation on Histopaque-1077 (Sigma, cat no. 10771). Isolated cells were seeded into the wells of a 96-well plate and incubated for 3 h with lipopolysaccharide (LPS). Following medium exchange, the compounds of the present disclosure were added (a single compound per well) and the cells were incubated for 30 min. Next, the cells were stimulated either with ATP (5 mM) or nigericin (10 μM) for 1 h and the cell culture media from the wells were collected for further analysis.
The release of IL-1β into the media was determined by a quantitative detection of IL-1β in the media using an IL-1β enzyme-linked immunosorbent assay (ELISA) Ready-SET-Go!, eBioscience cat. No. 88-7261-88. Briefly, in a first step, high affinity binding plates (Corning, Costar 9018 or NUNC Maxisorp Cat No. 44-2404) were coated overnight at 4° C. with specific capture antibody included in the kit (anti-human IL-1β ref. 14-7018-68). Subsequently, plates were blocked with blocking buffer for 1 h at room temperature (rt) and after washing with a buffer (PBS with 0.05% Tween-20) incubated with protein standard and culture media. After 2 h of incubation at rt, plates were washed and incubated with biotinylated detection antibody included in the kit (anti-human IL-1β Biotin ref. 33-7110-68) for 1 h at rt. Plates were washed and incubated with HRP-streptavidin for 30 min at rt and washed again. The signal was developed after addition of 3,3′,5,5′-tetramethylbenzidine-peroxidase (TMB) until colour appeared and the reaction was stopped by 2 M H2SO4. A microplate spectrophotometer (BioTek) was used to detect signals with 450 nm. The detection range of IL-1β ELISA was […].
Protocol B. PBMC were isolated from buffy coats by density gradient centrifugation on Histopaque-1077 (Sigma, cat no. 10771). Isolated cells were seeded into the wells (280,000 cells/well) of a 96-well plate and incubated for 3 h with lipopolysaccharide (LPS, 1 μg/mL diluted 1000× from a 1 mg/mL stock solution). The compounds of the present disclosure were added (a single compound per well) and the cells were incubated for 30 min. Next, the cells were stimulated with ATP (5 mM final concentration diluted 20× from a 100 mM stock solution) for 1 h and the cell culture media from the wells were collected for further analysis.
The release of IL-1β into the media was determined by quantitative detection of IL-1β in the media using HTRF®, CisBio cat. No. 62HIL1BPEH. Briefly, cell culture supernatant were dispensed directly into the assay plate containing antibodies labelled with the HTRF® donor and acceptor. A microplate spectrophotometer (BMG) was used to detect signals at 655 nm and 620 nm. The detection range of IL-1β HTRF® was 39-6500 pg/mL.
(An ELISA detects its analyte on a solid surface through an enzyme-linked reagent.)

The structures appear in SMILES notation. Counter-ions that a name gives are not always drawn.

Consider `CC(=O)N1CCC(Cn2ccc3cc(-c4c(C)cc(Cl)cc4O)nnc32)CC1` [Compound 9, 1-(4-{[3-(4-Chloro-2-hydroxy-6-methylphenyl)-7H-pyrrolo[2,3-c]pyridazin-7-yl]methyl}piperidin-1-yl)ethan-1-one], for which the IC50 in assay [1] and in assay [2] was 0.03 to 0.1 µM in each case.
Turning to `Cc1cc(Cl)cc(O)c1-c1cc2ccn(CC3CCN(CC(F)F)CC3)c2nn1` [Compound 10, 5-Chloro-2-(7-{[1-(2,2-difluoroethyl)piperidin-4-yl]methyl}-7H-pyrrolo[2,3-c]pyridazin-3-yl)-3-methylphenol hydrochloride], the half-maximal inhibitory concentration (IC50) in assay [1] and in assay [2] was 0.1 to 0.3 µM each time.
`Cc1cc(Cl)cc(O)c1-c1cc2ccn(CC3CCN(C)C(=O)C3)c2nn1` (centres unmarked) [Compound 11, 4-{[3-(4-Chloro-2-hydroxy-6-methylphenyl)-7H-pyrrolo[2,3-c]pyridazin-7-yl]methyl}-1-methylpiperidin-2-one]: the half-maximal inhibitory concentration (IC50) in assay [1] and in assay [2] was 0.1 to 0.3 µM throughout.
On to `Cc1cc(Cl)cc(O)c1-c1cc2ccn(CCN3CCOCC3)c2nn1` [Compound 12, 5-Chloro-3-methyl-2-{7-[2-(morpholin-4-yl)ethyl]-7H-pyrrolo[2,3-c]pyridazin-3-yl}phenol hydrochloride], for which the IC50 fell in the range of 0.1 to 0.3 µM in assay [1] and 0.3 to 1 µM in assay [2].
The corresponding values for `Cc1cc(Cl)cc(O)c1-c1cc2ccn(CCN3CCN(C)CC3)c2nn1` [Compound 13, 5-Chloro-3-methyl-2-{7-[2-(4-methylpiperazin-1-yl)ethyl]-7H-pyrrolo[2,3-c]pyridazin-3-yl}phenol dihydrochloride] are 0.3 to 1 µM and 0.3 to 1 µM.
The corresponding values for `Cc1cc(Cl)cc(O)c1-c1cc2ccn(CC3CCCCN3C)c2nn1` (centres unmarked) [Compound 14, 5-Chloro-3-methyl-2-{7-[(1-methylpiperidin-2-yl)methyl]-7H-pyrrolo[2,3-c]pyridazin-3-yl}phenol] are 0.1 to 0.3 µM and 0.1 to 0.3 µM.
`Cc1cc(Cl)cc(O)c1-c1cc2ccn(CC3CCN(C4COC4)CC3)c2nn1` [Compound 15, 5-Chloro-3-methyl-2-(7-{[1-(oxetan-3-yl)piperidin-4-yl]methyl}-7H-pyrrolo[2,3-c]pyridazin-3-yl)phenol]: the 50% inhibitory concentration (IC50) in assay [1] and in assay [2] was 0.1 to 0.3 µM each time.
Take `Cc1cc(Cl)cc(O)c1-c1cc2ccn(CC3CCOC3)c2nn1` (centres unmarked) [Compound 16, 5-Chloro-3-methyl-2-{7-[(oxolan-3-yl)methyl]-7H-pyrrolo[2,3-c]pyridazin-3-yl}phenol]: the IC50 in assay [1] and in assay [2] was 0.1 to 0.3 µM in each case.
As for `COC(=O)N1CCC(Cn2ccc3cc(-c4c(C)cc(Cl)cc4O)nnc32)CC1` [Compound 17, Methyl 4-{[3-(4-chloro-2-hydroxy-6-methylphenyl)-7H-pyrrolo[2,3-c]pyridazin-7-yl]methyl}piperidine-1-carboxylate], the half-maximal inhibitory concentration (IC50) in assay [1] and in assay [2] was 0.1 to 0.3 µM in each case.
With `COCCN1CCC(Cn2ccc3cc(-c4c(C)cc(Cl)cc4O)nnc32)CC1` [Compound 18, 5-Chloro-2-(7-{[1-(2-methoxyethyl)piperidin-4-yl]methyl}-7H-pyrrolo[2,3-c]pyridazin-3-yl)-3-methylphenol], the IC50 in assay [1] and in assay [2] was 0.1 to 0.3 µM each time.
For `CNC(=O)Cn1ccc2cc(-c3c(C)cc(Cl)cc3O)nnc21` [Compound 19, 2-[3-(4-Chloro-2-hydroxy-6-methylphenyl)-7H-pyrrolo[2,3-c]pyridazin-7-yl]-N-methylacetamide], the IC50 in assay [1] and in assay [2] was 0.3 to 1 µM in each case.
Take `CNC(=O)CCn1ccc2cc(-c3c(C)cc(Cl)cc3O)nnc21` [Compound 20, 3-[3-(4-Chloro-2-hydroxy-6-methylphenyl)-7H-pyrrolo[2,3-c]pyridazin-7-yl]-N-methylpropanamide]: the IC50 in assay [1] and in assay [2] was 0.3 to 1 µM each time.
Take `COCCn1ccc2cc(-c3c(C)cc(Cl)cc3O)nnc21` [Compound 21, 5-Chloro-2-[7-(2-methoxyethyl)-7H-pyrrolo[2,3-c]pyridazin-3-yl]-3-methylphenol]: the IC50 was in the range of 0.3 to 1 µM in assay [1] and 0.1 to 0.3 µM in assay [2].

What is called IC50 is the point on the concentration scale where inhibition reaches its midpoint.
